Data taken from patent publication US4118561A, “7-(Substituted)-7H-pyrrolo[3,2-f]quinazoline-1,3-diamines” (priority 1977, dated 1978).
Converted amounts (≈) assume the structure as drawn. Read-outs that look alike come from different tables or passages of the source.

Assays:
S. paratyphi 11737 = assay: In vitro antibacterial activity (MIC), S. paratyphi 11737; type: cell-based; conditions: Salmonella enterica, 18 h
Proteus mirabilis 190 = assay: In vivo antibacterial synergism (mouse), Proteus mirabilis 190; set-up: species or system Proteus mirabilis (infected mice, CD-1); conditions: for ED50: Proteus mirabilis, 190, po, 336 h; for PD50 SM/Cpd. (compound part): 0 hours, 20160 min
Experimental: (§1) The test agents are weighed, suspended in 0.5% aqueous carboxymethyl cellulose, homogenized (glass tissue grinder) and diluted according to the design of the experiment. Mice (male, 18±1 g., CD-1 strain) are pre-weighed, pooled, infected at random intraperitoneally with a 0.5 ml. standardized suspension (LD95 ±5%) of the bacterial organism in 5% gastric mucin and treated at random with single doses of the test agents either at the time of infection or six hours after infecting. The treated groups consist of ten mice per dosage level. Deaths are recorded daily for 14 days and the PD50 (mice are treated at time of infection) and CD50 (mice are treated six hours after infecting) values are calculated by the method of Reed and Muench [Amer. J. Hyg., 27, 493 (1938)].

[1] = Antimalarial blood schizonticidal test in mice; type: in vivo, Plasmodium berghei (infected ICR/HA Swiss mice); set-up: ΔMST (increase in mean survival time): unit: days; conditions: mouse, in vivo, sc, single dose, infected mice; highest dose with no deaths for any reason; read-out: Highest Non-Lethal Dose
Summary of the method: (§2)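 ICR/HA Swiss mice (18–22 g) infected i.p. with 4 × 10^7 P. berghei KBG 173-parasitized cells; single subcutaneous dose in peanut oil at 72 h post-infection, graded dosages. Survival followed 60 days; 60-day survivors counted cured, deaths before day 6 counted toxic; mean survival time compared with untreated controls.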

[2] = tested on: Plasmodium berghei KBG 173; assay: Antimalarial blood schizonticidal test in mice; type: in vivo, Plasmodium berghei (infected ICR/HA Swiss mice); set-up: ΔMST (increase in mean survival time): unit: days; conditions: for ED100 / minimal effective dose: Plasmodium berghei, sc, single dose; for ED100: read-out: Lowest Dose Curing All Mice; for minimal effective dose: read-out: Min. Curing Dose; for Cure/Treat at Min. Curing Dose: at the Min. Curing Dose
Summary of the method: as §2

P. cynomolgi = assay: Activity against P. cynomolgi infections in Rhesus monkeys; type: in vivo, P. cynomolgi (infected Rhesus monkeys); conditions: Plasmodium cynomolgi, in Macaca mulatta, 168 h
[3] = tested on: lymphocytic leukemia P-388; assay: Activity in mice against lymphocytic leukemia P-388; type: in vivo; conditions: Mus musculus, P388, ip, read-out: T/C
[4] = Acute toxicity in mice, i.p. single dose; type: in vivo, Charles River COBS CD Strain Albino mice, male; conditions: mouse, in vivo, ip; mice, single dose, 14 days
Experimental: (§3) Single doses of 7-(phenylmethyl)-7H-pyrrolo[3,2-f]-quinazoline-1,3-diamine (active moiety) were intraperitoneally administered in 0.5% carboxymethylcellulose at a constant dose volume of 10 ml./kg., to groups of 10 mice/dose level. (Charles River COBS CD Strain Albino mice, male, weight 21.0-25.29.) Daily observations were made on all mice for the duration of experiment (14 days). […] (95% confidence limits of 48.6-93.4) all deaths occurred 4-5 days post-drug-administration.
(§4) These effects lasted up to 6 days in the low dose animals and 14 days in those animals having received the highest dose. All mice alive on day 14 were sacrificed and necropsied.

mice = assay: Acute toxicity in mice, i.p. single dose; type: in vivo, Charles River COBS CD Strain Albino mice, male
Experimental: as §3, §4

E. coli 9637 = assay: In vitro antibacterial activity (MIC), E. coli 9637; conditions: Escherichia coli, 9637, 18 h
S. aureus Smith = assay: In vitro antibacterial activity (MIC), S. aureus Smith; conditions: Staphylococcus aureus, 18 h
S. aureus 53-180 = assay: In vitro antibacterial activity (MIC), S. aureus 53-180; conditions: Staphylococcus aureus, 53180, 18 h
P. vulgaris 6896 = assay: In vitro antibacterial activity (MIC), P. vulgaris 6896; conditions: Proteus vulgaris, 6896, 18 h
N. catarrhalis 8193 = assay: In vitro antibacterial activity (MIC), N. catarrhalis 8193; conditions: 18 h
K. pneumoniae 10031 = assay: In vitro antibacterial activity (MIC), K. pneumoniae 10031; conditions: Klebsiella pneumoniae, 10031, 18 h
bacterial infections = assay: Synergism with sulfamethoxazole against bacterial infections in mice, oral; type: in vivo
Experimental: The invention also provides compounds which will potentiate the antibacterial effects of sulfa drugs.
as §1

Proteus mirabilis 3 = assay: In vivo antibacterial synergism (mouse), Proteus mirabilis 3; set-up: species or system Proteus mirabilis (infected mice, CD-1); conditions: Proteus mirabilis, 3, po, 336 h; mice, p.o., treated 0 hours after infecting; read-out: PD50 (agent alone)
Experimental: as §1

Proteus vulgaris 347 = assay: In vivo antibacterial synergism (mouse), Proteus vulgaris 347; set-up: species or system Proteus vulgaris (infected mice, CD-1); conditions: Proteus vulgaris, 347, po, 336 h, mice, p.o.
Experimental: as §1

Escherichia coli W-102 = assay: In vivo antibacterial synergism (mouse), Escherichia coli W-102; set-up: species or system Escherichia coli (infected mice, CD-1); conditions: Escherichia coli, W102, po, 336 h; mice, p.o., treated 0 hours after infecting; read-out: PD50 (agent alone)
Experimental: as §1

[5] = mice, p.o., with SM 1.56 mg. per kg.
[6] = mice, p.o., treated 0 hours after infecting, read-out: PD50 (agent alone)
[7] = mice, p.o., with SM 3.11 mg. per kg.

Row | Compound | MIC (S. paratyphi 11737) [µg/mL] | PD50 SM/Cpd. (compound part) (Proteus mirabilis 190; [5]) [mg. per kg.] | MTD [1] [mg/kg] | ED100 ([2]; 1440 h, s.c., 60-day survivors) [mg/kg] | Cure/Treat at Min. Curing Dose ([2]; s.c., 60-day survivors) | MIC (E. coli 9637) [µg/mL] | MIC (S. aureus Smith) [µg/mL] | MIC (S. aureus 53-180) [µg/mL] | MIC (P. vulgaris 6896) [µg/mL] | MIC (N. catarrhalis 8193) [µg/mL] | MIC (K. pneumoniae 10031) [µg/mL] | synergistic effect with sulfamethoxazole (bacterial infections) | ED50 (Proteus mirabilis 190; [6]) [mg/kg] | minimal effective dose ([2]; 1440 h, s.c., 60-day survivors) [mg/kg] | other results
1 | Nc1nc(N)c2c(ccc3c2ccn3Cc2ccccc2)n1 [Example 2, 7-(Phenylmethyl)-7H-pyrrolo[3,2-f]quinazoline-1,3-diamine] | 1.95 (≈ 6.74 µM) | 7.78 | 160 | 80 | 2/5 | 1.95 (≈ 6.74 µM) | 1.95 (≈ 6.74 µM) | 1.95 (≈ 6.74 µM) | 7.81 (≈ 27 µM) | 0.061 (≈ 0.211 µM) | 1.95 (≈ 6.74 µM) | – | – | – | ED50 (Proteus mirabilis 190; read-out: PD50 (agent alone)): 22.5 mg/kg; minimal effective dose ([2]; this is the lowest dose tested): 20 mg/kg; ΔMST (increase in mean survival time) ([2]; s.c., dose 20 mg. per kg.): 10.9; ED50 (P. cynomolgi; po, read-out: CD50): 0.1 mg/kg; response vs control in vivo at 10 mg/kg [3]: 149%; LD50 at 336 h [4]: 54.5 mg/kg; duration of effects (mice; animals having received the highest dose, i.p.): 14 days; signs observed on day 2 post-drug-administration (mice; day 2, i.p. single dose): rough coats and decreased fecal elimination; duration of effects (mice; low dose animals, i.p.): up to 6 days; necropsy, macroscopic (mice; mice alive on day 14): Macroscopically, the tissues appeared normal; time of deaths post-drug-administration (mice; mice, i.p., single dose): 4 to 5 days; LD50, 95% confidence limits (mice; mice, i.p., single dose, 14 days): 48.6 to 93.4 mg/kg; signs in all mice after i.p. injection (mice; within 1 hour after i.p. injection): decreased spontaneous motor activity, bradypnea, ptosis, and stretching with indrawn sides in all mice
2 | Nc1nc(N)c2c(ccc3c2ccn3Cc2ccc(F)cc2)n1 [Example 5, 7-[(4-fluorophenyl)methyl]-7H-pyrrolo[3,2-f]-quinazoline-1,3-diamine] | 0.488 (≈ 1.59 µM) | 1.56 | 80 | 20 | 2/5 | 0.122 (≈ 0.397 µM) | 0.244 (≈ 0.794 µM) | 0.122 (≈ 0.397 µM) | 0.488 (≈ 1.59 µM) | 0.0038 (≈ 0.0124 µM) | 0.031 (≈ 0.101 µM) | synergistic effect | 9.8 | 5 | ΔMST (increase in mean survival time) ([2]; s.c., dose 2.5 mg. per kg.): 7.1
3 | N#Cc1cccc(Cn2ccc3c4c(N)nc(N)nc4ccc32)c1 [Example 15, 7-[(3-cyanophenyl)methyl]-7H-pyrrolo[3,2-f]-quinazoline-1,3-diamine] | 0.488 (≈ 1.55 µM) | 2.67 | 40 | 10 | 2/5 | 0.122 (≈ 0.388 µM) | 0.061 (≈ 0.194 µM) | 0.031 (≈ 0.0986 µM) | 0.976 (≈ 3.1 µM) | 0.0038 (≈ 0.0121 µM) | 0.031 (≈ 0.0986 µM) | synergistic effect | 8.8 | 1.25 | ΔMST (increase in mean survival time) ([2]; s.c., dose 1.25 mg. per kg.): 9.6
4 | COc1ccc(Cn2ccc3c4c(N)nc(N)nc4ccc32)cc1 [Example 34, 7-[(4-methoxyphenyl)methyl]-7H-pyrrolo[3,2-f]quinazoline-1,3-diamine] | 0.976 (≈ 3.06 µM) | – | 160 | 20 | 2/5 | 0.488 (≈ 1.53 µM) | 0.976 (≈ 3.06 µM) | 0.244 (≈ 0.764 µM) | 0.976 (≈ 3.06 µM) | 0.0152 (≈ 0.0476 µM) | 0.061 (≈ 0.191 µM) | – | – | 5 | ΔMST (increase in mean survival time) ([2]; s.c., dose 5 mg. per kg.): 11.2; ED50 (P. cynomolgi; Rhesus monkeys, oral, seven days, read-out: CD50 (the source's name)): 0.316 mg/kg
5 | N#Cc1ccc(-n2ccc3c4c(N)nc(N)nc4ccc32)cc1 [Example 69, 7-(4-Cyanophenyl)-7H-pyrrolo[3,2-f]-quinazoline-1,3-diamine] | 31.3 (≈ 104 µM) | 9.39 | 20 | 20 | 3/5 | 0.976 (≈ 3.25 µM) | 0.976 (≈ 3.25 µM) | 0.488 (≈ 1.62 µM) | 125 (≈ 416 µM) | 0.031 (≈ 0.103 µM) | 0.122 (≈ 0.406 µM) | synergistic effect | > 400 | 5 | PD50 SM/Cpd. (compound part) (Proteus mirabilis 190; mice, p.o., with SM 0.39 mg. per kg.): > 12.5 mg. per kg.; PD50 SM/Cpd. (compound part) (Proteus mirabilis 190; mice, p.o., with SM 0.78 mg. per kg.): > 12.5 mg. per kg.; PD50 SM/Cpd. (compound part) (Proteus mirabilis 190; [7]): 2.55 mg. per kg.; ΔMST (increase in mean survival time) ([2]; s.c., dose 2.5 mg. per kg.): 11
6 | Nc1nc(N)c2c(ccc3c2ccn3-c2nccs2)n1 [Example 81, 7-(2-thiazolyl)-7H-pyrrolo[3,2-f]quinazoline-1,3-diamine] | 1.95 (≈ 6.91 µM) | > 12.5 | – | – | 4/5 | 0.976 (≈ 3.46 µM) | 0.488 (≈ 1.73 µM) | 0.244 (≈ 0.864 µM) | 3.9 (≈ 13.8 µM) | 0.0152 (≈ 0.0538 µM) | 0.244 (≈ 0.864 µM) | synergistic effect | 22.3 | 640 | PD50 SM/Cpd. (compound part) (Proteus mirabilis 190; [7]): 6.25 mg. per kg.; ΔMST (increase in mean survival time) ([2]; s.c., dose 160 mg. per kg.): 8.3
7 | Cc1cc2c3c(N)nc(N)nc3ccc2n1Cc1ccccc1 [Example 100, 8-methyl-7-(phenylmethyl)-7H-pyrrolo[3,2-f]-quinazoline-1,3-diamine] | 3.9 (≈ 12.9 µM) | 3.11 | – | – | – | 0.488 (≈ 1.61 µM) | 1.95 (≈ 6.43 µM) | 0.976 (≈ 3.22 µM) | 15.6 (≈ 51.4 µM) | 0.122 (≈ 0.402 µM) | 0.244 (≈ 0.804 µM) | synergistic effect | 36.6 | – | –
8 | Cc1cc(NS(=O)(=O)c2ccc(N)cc2)no1 [SM, sulfomethoxazole, reference compound] | – | – | – | – | – | – | – | – | – | – | – | – | – | – | ED50 (Proteus mirabilis 190; mice, p.o., treated 6 hours after infecting, read-out: CD50 (agent alone)): 14 mg/kg; ED50 (Proteus mirabilis 3): 9.9 mg/kg; ED50 (Proteus vulgaris 347; treated 0 hours after infecting, read-out: PD50 (agent alone)): 43.2 mg/kg; ED50 (Proteus vulgaris 347; treated 6 hours after infecting, read-out: CD50 (agent alone)): 60 mg/kg; ED50 (Escherichia coli W-102): 95 mg/kg
